Molecules are shown by their SMILES.

The subject of one assay is Yellow Fever Mosquito (Aedes aegypti, AEDSAE) larvae. The assay can be described thus: Bioassay on yellow fever mosquito (YFM), 96-well plate larval assay. The format is in vivo. The conditions noted are these: 4000 ppm (master plate solution), about 1 day-old larvae, 3 days. On the procedure: Example B: Bioassays on Yellow Fever Mosquito (Aedes aegypti, AEDSAE) (“YFM”)
Master plates containing 400 μg of a molecule dissolved in 100 μL of dimethyl sulfoxide (DMSO) (equivalent to a 4000 ppm solution) are used. A master plate of assembled molecules contains 15 μL per well. To this plate, 135 μL of a 90:10 water/acetone mixture is added to each well. A robot (Biomek® NXP Laboratory Automation Workstation) is programmed to dispense 15 μL aspirations from the master plate into an empty 96-well shallow plate (“daughter” plate). There are 6 reps (“daughter” plates) created per master. The created “daughter” plates are then immediately infested with YFM larvae.
The day before plates are to be treated, mosquito eggs are placed in Millipore water containing liver powder to begin hatching (4 g into 400 mL). After the “daughter” plates are created using the robot, they are infested with 220 μL of the liver powder/larval mosquito mixture (about 1 day-old larvae). After plates are infested with mosquito larvae, a non-evaporative lid is used to cover the plate to reduce drying. Plates are held at room temperature for 3 days prior to grading. After 3 days, each well is observed and scored based on mortality.
For the molecule `COCC(=O)Nc1cccc(NC(=O)[C@H]2[C@H](c3cc(Cl)cc(Cl)c3)C2(Cl)Cl)c1` (racemic) [F4, trans-rac-2,2-Dichloro-3-(3,5-dichlorophenyl)-N-(3-(2-methoxyacetamido)phenyl)cyclopropane-1-carboxamide], the “activity against YFM (scored based on mortality)” value (shortened to “activity against YFM”) is “exhibited activity”.

Regarding `O=C(CCC(F)(F)F)Nc1cc(NC(=O)[C@H]2[C@H](c3cc(Cl)cc(Cl)c3)C2(Cl)Cl)ccc1Cl` (racemic) [F7, trans-rac-2,2-dichloro-N-(4-chloro-3-(4,4,4-trifluorobutanamido)phenyl)-3-(3,5-dichlorophenyl)cyclopropane-1-carboxamide], the “activity against YFM” value is “exhibited activity”.

In the case of `O=C(Nc1cc(NC(=O)[C@H]2[C@H](c3cc(Cl)cc(Cl)c3)C2(Cl)Cl)ccc1Cl)c1c(F)cccc1F` (racemic) [F25, trans-rac-N-(2-Chloro-5-(2,2-dichloro-3-(3,5-dichlorophenyl)cyclopropane-1-carboxamido)phenyl)-2,6-difluorobenzamide], the “activity against YFM” value is “exhibited activity”.

`O=C(Nc1cc(NC(=O)[C@H]2[C@H](c3cc(Cl)cc(Cl)c3)C2(Cl)Cl)ccc1Cl)c1ccccn1` (racemic) [F28, trans-rac-N-(2-chloro-5-(2,2-dichloro-3-(3,5-dichlorophenyl)cyclopropane-1-carboxamido)phenyl)picolinamide]: the “activity against YFM” value is “exhibited activity”.

For `O=C(Nc1cc(NC(=O)[C@H]2[C@H](c3cc(Cl)cc(Cl)c3)C2(Cl)Cl)ccc1Cl)c1ccno1` (racemic) [F35, trans-rac-N-(2-Chloro-5-(2,2-dichloro-3-(3,5-dichlorophenyl)cyclopropane-1-carboxamido)phenyl)isoxazole-5-carboxamide], the “activity against YFM” value was “exhibited activity”.

Consider `CCCC(=O)Nc1cc(NC(=O)[C@H]2[C@H](c3cc(Cl)cc(Cl)c3)C2(Cl)Cl)ccc1Cl` (racemic) [F45, trans-rac-N-(3-Butyramido-4-chlorophenyl)-2,2-dichloro-3-(3,5-dichlorophenyl)cyclopropane-1-carboxamide], for which the “activity against YFM” value is listed as “exhibited activity”.

Turning to `O=C(CC1CC1)Nc1cccc(NC(=O)[C@H]2[C@H](c3cc(Cl)cc(Cl)c3)C2(Cl)Cl)c1F` [F21, (1R,3R)-2,2-Dichloro-N-(3-(2-cyclopropylacetamido)-2-fluorophenyl)-3-(3,5-dichlorophenyl)cyclopropane-1-carboxamide], the “activity against YFM” value is given as “exhibited activity”.

The subject of a further assay is Beet Armyworm (Spodoptera exigua, LAPHEG) second instar larva. The assay can be described thus: Bioassay on beet armyworm (BAW), 128-well diet tray assay. The format is in vivo. The following applies: 50 μg/cm^2 on artificial diet, 25° C., five days. How it is done:
Example A: Bioassays on Beet Armyworm (Spodoptera exigua, LAPHEG) (“BAW”) and Cabbage Looper (Trichoplusia ni, TRIPNI) (“CL”)
Bioassays on BAW were conducted using a 128-well diet tray assay. One second instar BAW larva was placed in each well (8 wells total) of the diet tray that had been previously filled with 1 mL of artificial diet to which 50 μg/cm^2 of the test molecule (dissolved in 50 μL of 90:10 acetone-water mixture) had been applied (to each of eight wells) and then allowed to dry. Trays were covered with a clear self-adhesive cover, vented to allow gas exchange, and held at 25° C., 14:10 light-dark for five days. Percent mortality was recorded for the larvae in each well; activity in the eight wells was then averaged.
Consider `COCC(=O)Nc1cccc(NC(=O)[C@H]2[C@H](c3cc(Cl)cc(Cl)c3)C2(Cl)Cl)c1` (racemic) [F4, trans-rac-2,2-Dichloro-3-(3,5-dichlorophenyl)-N-(3-(2-methoxyacetamido)phenyl)cyclopropane-1-carboxamide], for which the “activity against BAW (percent mortality, averaged over eight wells)” value was “exhibited activity”.

Turning to `O=C(CCC(F)(F)F)Nc1cc(NC(=O)[C@H]2[C@H](c3cc(Cl)cc(Cl)c3)C2(Cl)Cl)ccc1Cl` (racemic) [F7, trans-rac-2,2-dichloro-N-(4-chloro-3-(4,4,4-trifluorobutanamido)phenyl)-3-(3,5-dichlorophenyl)cyclopropane-1-carboxamide], the “activity against BAW (percent mortality, averaged over eight wells)” value was “exhibited activity”.

Consider `O=C(Nc1cc(NC(=O)[C@H]2[C@H](c3cc(Cl)cc(Cl)c3)C2(Cl)Cl)ccc1Cl)c1c(F)cccc1F` (racemic) [F25, trans-rac-N-(2-Chloro-5-(2,2-dichloro-3-(3,5-dichlorophenyl)cyclopropane-1-carboxamido)phenyl)-2,6-difluorobenzamide], for which the “activity against BAW (percent mortality, averaged over eight wells)” value is recorded as “exhibited activity”.

As to `O=C(Nc1cc(NC(=O)[C@H]2[C@H](c3cc(Cl)cc(Cl)c3)C2(Cl)Cl)ccc1Cl)c1ccno1` (racemic) [F35, trans-rac-N-(2-Chloro-5-(2,2-dichloro-3-(3,5-dichlorophenyl)cyclopropane-1-carboxamido)phenyl)isoxazole-5-carboxamide], the “activity against BAW (percent mortality, averaged over eight wells)” value was “exhibited activity”.

As for `O=C(COCC(F)(F)F)Nc1ccc(C(=O)Nc2cc(NC(=O)[C@H]3[C@H](c4ccc(F)c(C(F)(F)F)c4)C3(Cl)Cl)ccc2Cl)c(F)c1` (racemic) [F119, trans-rac-N-(2-Chloro-5-(2,2-dichloro-3-(4-fluoro-3-(trifluoromethyl)phenyl)cyclopropane-1-carboxamido)phenyl)-2-fluoro-4-(2-(2,2,2-trifluoroethoxy)acetamido)benzamide], the “activity against BAW (percent mortality, averaged over eight wells)” value is listed as “exhibited activity”.

As for `O=C(CCC(F)(F)F)Nc1ccc(C(=O)Nc2cc(NC(=O)[C@H]3[C@H](c4ccc(F)c(C(F)(F)F)c4)C3(Cl)Cl)ccc2Cl)c(F)c1` (racemic) [F120, trans-rac-N-(2-Chloro-5-(2,2-dichloro-3-(4-fluoro-3-(trifluoromethyl)phenyl)cyclopropane-1-carboxamido)phenyl)-2-fluoro-4-(4,4,4-trifluorobutanamido)benzamide], the “activity against BAW (percent mortality, averaged over eight wells)” value was “exhibited activity”.

With `O=C(CSC(F)(F)F)Nc1ccc(C(=O)Nc2cc(NC(=O)[C@H]3[C@H](c4ccc(F)c(C(F)(F)F)c4)C3(Cl)Cl)ccc2Cl)c(F)c1` (racemic) [F121, trans-rac-N-(2-Chloro-5-(2,2-dichloro-3-(4-fluoro-3-(trifluoromethyl)phenyl)cyclopropane-1-carboxamido)phenyl)-2-fluoro-4-(2-((trifluoromethyl)thio)acetamido)benzamide], the “activity against BAW (percent mortality, averaged over eight wells)” value is “exhibited activity”.

Turning to `CCOC(C)C(=O)Nc1c(F)ccc(NC(=O)[C@H]2[C@H](c3cc(Cl)c(Cl)c(Cl)c3)C2(Cl)Cl)c1F` (stereo partly drawn) [F12, (1R,3R)-2,2-Dichloro-N-(3-(2-ethoxypropanamido)-2,4-difluorophenyl)-3-(3,4,5-trichlorophenyl)cyclopropane-1-carboxamide], the “activity against BAW (percent mortality, averaged over eight wells)” value is reported as “exhibited activity”.

In the case of `O=C(Nc1ccc(F)c(NC(=O)C(F)(F)C(F)(F)C(F)(F)F)c1F)[C@H]1[C@H](c2cc(Cl)c(Cl)c(Cl)c2)C1(Cl)Cl` [F13, (1R,3R)-2,2-Dichloro-N-(2,4-difluoro-3-(2,2,3,3,4,4,4-heptafluorobutanamido)phenyl)-3-(3,4,5-trichlorophenyl)cyclopropane-1-carboxamide], the “activity against BAW (percent mortality, averaged over eight wells)” value is “exhibited activity”.

For the molecule `Cc1cc(C#N)ccc1C(=O)Nc1cc(NC(=O)[C@H]2[C@H](c3ccc(F)c(C(F)(F)F)c3)C2(Cl)Cl)ccc1Cl` [F97, N-(2-Chloro-5-((1R,3R)-2,2-dichloro-3-(4-fluoro-3-(trifluoromethyl)phenyl)cyclopropane-1-carboxamido)phenyl)-4-cyano-2-methylbenzamide], the “activity against BAW (percent mortality, averaged over eight wells)” value is on record as “exhibited activity”.

Take `Cc1cc(C#N)ccc1C(=O)Nc1cc(NC(=O)[C@H]2[C@H](c3ccc(F)c(Br)c3)C2(Cl)Cl)ccc1Cl` [F98, N-(5-((1R,3R)-3-(3-Bromo-4-fluorophenyl)-2,2-dichlorocyclopropane-1-carboxamido)-2-chlorophenyl)-4-cyano-2-methylbenzamide]: the “activity against BAW (percent mortality, averaged over eight wells)” value is given as “exhibited activity”.

As for `Cc1cc(C#N)ccc1C(=O)Nc1cc(NC(=O)[C@H]2[C@H](c3ccc(Cl)c(Cl)c3)C2(Cl)Cl)ccc1Cl` [F99, N-(2-Chloro-5-((1R,3R)-2,2-dichloro-3-(3,4-dichlorophenyl)cyclopropane-1-carboxamido)phenyl)-4-cyano-2-methylbenzamide], the “activity against BAW (percent mortality, averaged over eight wells)” value is “exhibited activity”.

As to `CC(CC(=O)Nc1cc(NC(=O)[C@H]2[C@H](c3ccc(F)c(C(F)(F)F)c3)C2(Cl)Cl)ccc1Cl)C(F)(F)F` (stereo partly drawn) [F102, (1R,3R)-2,2-Dichloro-N-(4-chloro-3-(4,4,4-trifluoro-3-methylbutanamido)phenyl)-3-(4-fluoro-3-(trifluoromethyl)phenyl)cyclopropane-1-carboxamide], the “activity against BAW (percent mortality, averaged over eight wells)” value is recorded as “exhibited activity”.

Turning to `Nc1c(F)ccc(C(=O)Nc2cc(NC(=O)[C@H]3[C@H](c4ccc(F)c(C(F)(F)F)c4)C3(Cl)Cl)ccc2Cl)c1F` [F103, 3-amino-N-(2-chloro-5-((1R,3R)-2,2-dichloro-3-(4-fluoro-3-(trifluoromethyl)phenyl)cyclopropane-1-carboxamido)phenyl)-2,4-difluorobenzamide], the “activity against BAW (percent mortality, averaged over eight wells)” value is given as “exhibited activity”.

As for `O=C(Nc1cc(NC(=O)[C@H]2[C@H](c3ccc(F)c(C(F)(F)F)c3)C2(Cl)Cl)ccc1Cl)c1ccc(F)c(NC(=O)C(F)F)c1F` [F104, N-(2-chloro-5-((1R,3R)-2,2-dichloro-3-(4-fluoro-3-(trifluoromethyl)phenyl)cyclopropane-1-carboxamido)phenyl)-3-(2,2-difluoroacetamido)-2,4-difluorobenzamide], the “activity against BAW (percent mortality, averaged over eight wells)” value is listed as “exhibited activity”.

On to `COCC(=O)Nc1c(F)ccc(C(=O)Nc2cc(NC(=O)[C@H]3[C@H](c4ccc(F)c(C(F)(F)F)c4)C3(Cl)Cl)ccc2Cl)c1F` [F105, N-(2-chloro-5-((1R,3R)-2,2-dichloro-3-(4-fluoro-3-(trifluoromethyl)phenyl)cyclopropane-1-carboxamido)phenyl)-2,4-difluoro-3-(2-methoxyacetamido)benzamide], for which the “activity against BAW (percent mortality, averaged over eight wells)” value is “exhibited activity”.

Turning to `O=C(Nc1cc(NC(=O)[C@@H]2[C@@H](c3ccc(F)c(C(F)(F)F)c3)C2(Cl)Cl)ccc1Cl)c1cnc(F)c(F)c1` [F110, N-(2-Chloro-5-((1S,3S)-2,2-dichloro-3-(4-fluoro-3-(trifluoromethyl)phenyl)cyclopropane-1-carboxamido)phenyl)-5,6-difluoronicotinamide], the “activity against BAW (percent mortality, averaged over eight wells)” value is listed as “exhibited activity”.

These data come from patent US20240343681A1, “MOLECULES HAVING PESTICIDAL UTILITY AND INTERMEDIATES AND PROCESSES RELATED THERETO” (priority 2021, published 2024).
